The values that follow come from PMC7114507 (Virus Research, 2010).

In the experiment the target is T1, recHE4 (Isavirus salaris, UniProt Q9J0Y0).
T1 sequence (Q9J0Y0 17-353): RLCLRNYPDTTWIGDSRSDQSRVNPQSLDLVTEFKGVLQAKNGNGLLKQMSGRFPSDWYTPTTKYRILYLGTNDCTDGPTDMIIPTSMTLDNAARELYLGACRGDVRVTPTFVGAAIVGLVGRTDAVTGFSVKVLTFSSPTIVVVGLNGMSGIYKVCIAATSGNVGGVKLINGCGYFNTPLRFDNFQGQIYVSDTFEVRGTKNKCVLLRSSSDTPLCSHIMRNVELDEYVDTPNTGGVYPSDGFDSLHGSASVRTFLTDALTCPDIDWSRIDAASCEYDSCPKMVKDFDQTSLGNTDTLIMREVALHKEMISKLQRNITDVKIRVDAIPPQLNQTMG
In words: fluorescence acetylesterase assay, recHE on cobalt beads. Type of experiment: biochemical. The settings on record: 0-500 uM substrate, PBS pH 7.4, RT; bead-bound.

As to `CC(=O)Oc1ccc2c(C)cc(=O)oc2c1` [4-methylumbelliferyl acetate], the “fluorescence acetylesterase assay, recHE on cobalt beads” value is “recHE4 and recHE7 proteins exhibit similar acetylesterase activities with all substrate concentrations tested”.
